Entries after “also recorded” stand apart in the source; their conditions may differ.
How the values were obtained:
AAK1 = AAK1 (Homo sapiens, UniProt Q2M2I8); assay: ITC validation, AAK1; format: binding; settings: for Kd / KD: ITC; for LE: LE=1/N⋅1.4⋅−log(KD); for LE / LELP: AAK1; for LELP: LELP= logP/LE
Experimental: (§1) The protein was buffer exchanged into 50 mM HEPES, 100 mM NaCl, 2 mM MgCl2, and 1 mM TCEP at pH 7.4. The protein was concentrated to 50–100 µM, and DMSO was added to a final concentration of 5% (^V/V). The fragments were dissolved in DMSO to yield a 100 mM stock solution, which was further diluted with buffer to yield a 5 mM solution also containing 5% (^V/V) DMSO. A MicroCal iTC200 (Malvern) instrument was used with the measuring cell set to 25°C, while the cooling jacket was set to 15°C. After a 120 s initial delay following temperature equilibration, a first injection with 0.5 µl over 2 s was done. […] The measurement was conducted using a needle stirring speed of 1,000 rpm and a reference heat rate of 10 μcal/s. Experiments were aborted, when the measuring cell was unable to reach a heat rate greater than 9 μcal/s during equilibration. Affinities were averaged from duplicates.

DOT1L = target: T1, DOT1L (Homo sapiens, UniProt Q8TEK3); assay: ITC validation, DOT1L; format: binding; settings: 25°C, detection level >1 mM
T1 construct: made in house; host or cells: E. coli BL21 (DE3) pLysS
Experimental: as §1

CAMK1G = target: T2, CAMK1G (Homo sapiens, UniProt Q96NX5); assay: ITC validation, CAMK1G; format: binding; settings: for Kd: ITC, 25°C, 5% DMSO, pH 7.4, duplicates, 7405: fragment concentration reduced to 2 mM
T2 construct: made in house; host or cells: E. coli BL21 (DE3) pLysS
Experimental: as §1

[1] = GSH stability assay (HPLC); format: physicochemical; settings: t1/2 > 20 h defined as sufficiently stable
Experimental: A 500 µM fragment solution in PBS buffer pH 7.4, 10% acetonitrile and 200 µM indoprofen as an internal standard, was added to 10 mM GSH solution in a 1:2 ratio. The reaction temperature was 40°C. […] The reaction of fragments with GSH was determined by measuring the decreasing area under the curve (AUC) of the compound relative to the internal standard indoprofen. The gradient was chosen depending on the polarity of fragments to be either one of the following: […]

IDO1 = target: T3, IDO1 (Homo sapiens, UniProt P14902); assay: ITC validation, IDO1; format: binding
T3 construct: His-tag of pET15b with TEV site (thrombin site replaced) (cleaved yes); made in house; host or cells: E. coli Rosetta 2 (DE3) pLysS
Experimental: The protein was buffer exchanged into 50 mM HEPES, 100 mM NaCl, 2 mM MgCl2, and 1 mM TCEP at pH 7.4. The protein was concentrated to 50–100 µM, and DMSO was added to a final concentration of 5% (^V/V). The fragments were dissolved in DMSO to yield a 100 mM stock solution, which was further diluted with buffer to yield a 5 mM solution also containing 5% (^V/V) DMSO. A MicroCal iTC200 (Malvern) instrument was used with the measuring cell set to 25°C, while the cooling jacket was set to 15°C. After a 120 s initial delay following temperature equilibration, a first injection with 0.5 µl over 2 s was done. Nineteen injections with 2 µl over 4 s were performed every 180 s ([Ruhmann et al., 2015]). The measurement was conducted using a needle stirring speed of 1,000 rpm and a reference heat rate of 10 μcal/s. Experiments were aborted, when the measuring cell was unable to reach a heat rate greater than 9 μcal/s during equilibration. Affinities were averaged from duplicates.

CAMK1G (1-320) = target: T4, CAMK1G (1-320) (Homo sapiens, UniProt Q96NX5); assay: STD-NMR fragment screening, CAMK1G; format: binding; settings: for STD-NMR hit: 1 mM fragment, 20 µM protein, hit if peak in difference spectrum three times higher than local noise; for CAMK1G (STD-NMR hit flag): 1 = hit, 0 = no hit
T4 construct: made in house; host or cells: E. coli BL21 (DE3) pLysS
In short: (§2)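 Saturation-transfer difference NMR was run at 25°C and 700 MHz with 20 µM protein, two fragments at 1 mM each, and 10% DMSO-d6. On-resonance saturation was at 0.5–0.6 ppm and off-resonance at 40 ppm, with a 3 s Gaussian-pulse train. A hit required a difference-spectrum peak at least three times the local noise.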

AAK1 (121-471) = AAK1 (121-471) (Homo sapiens, UniProt Q2M2I8); assay: STD-NMR fragment screening, AAK1; format: binding; settings: for AAK1 (STD-NMR hit flag): 1 = hit, 0 = no hit
In short: as §2

IDO1 (1-435) = target: T5, IDO1 (1-435) (Homo sapiens, UniProt P14902); assay: STD-NMR fragment screening, IDO1; format: binding; settings: for IDO1 (STD-NMR hit flag): 1 = hit, 0 = no hit
T5 construct: His-tag of pET15b with TEV site (thrombin site replaced) (cleaved yes); made in house; host or cells: E. coli Rosetta 2 (DE3) pLysS
In short: as §2

DOT1L (1-416) = target: T6, DOT1L (1-416) (Homo sapiens, UniProt Q8TEK3); assay: STD-NMR fragment screening, DOT1L; format: binding; settings: for DOT1L (STD-NMR hit flag): 1 = hit, 0 = no hit
T6 construct: made in house; host or cells: E. coli BL21 (DE3) pLysS
In short: as §2

[2] = 25°C, 5% DMSO, pH 7.4, duplicates
[3] = ITC, 25°C, 5% DMSO, pH 7.4, duplicates
[4] = 1 mM fragment, 20 µM protein, hit if peak in difference spectrum three times higher than local noise

T1 sequence (Q8TEK3 1-416): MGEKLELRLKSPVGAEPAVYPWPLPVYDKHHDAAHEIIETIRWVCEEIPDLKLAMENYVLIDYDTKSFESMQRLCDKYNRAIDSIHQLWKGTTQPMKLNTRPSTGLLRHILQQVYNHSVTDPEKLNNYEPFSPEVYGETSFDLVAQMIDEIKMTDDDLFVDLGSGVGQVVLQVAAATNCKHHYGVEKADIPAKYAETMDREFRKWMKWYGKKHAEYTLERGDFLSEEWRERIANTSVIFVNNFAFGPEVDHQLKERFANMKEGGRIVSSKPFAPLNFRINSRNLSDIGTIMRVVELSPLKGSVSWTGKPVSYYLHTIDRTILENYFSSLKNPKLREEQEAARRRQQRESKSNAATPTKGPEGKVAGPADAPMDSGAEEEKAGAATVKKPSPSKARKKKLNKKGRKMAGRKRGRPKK
T6 sequence (Q8TEK3 1-416): as above
T4 sequence (Q96NX5 1-320): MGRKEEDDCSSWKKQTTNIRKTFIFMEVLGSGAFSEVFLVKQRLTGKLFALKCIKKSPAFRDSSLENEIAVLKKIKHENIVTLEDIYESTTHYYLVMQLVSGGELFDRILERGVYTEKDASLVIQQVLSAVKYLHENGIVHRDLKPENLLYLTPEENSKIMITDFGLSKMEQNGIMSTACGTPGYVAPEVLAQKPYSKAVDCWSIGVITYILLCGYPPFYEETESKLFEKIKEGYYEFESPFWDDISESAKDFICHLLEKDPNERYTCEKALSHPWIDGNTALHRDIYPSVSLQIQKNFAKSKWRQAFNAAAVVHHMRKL
T2 sequence (Q96NX5 1-320): as above
T5 sequence (P14902 whole entry, the tested form may be a part): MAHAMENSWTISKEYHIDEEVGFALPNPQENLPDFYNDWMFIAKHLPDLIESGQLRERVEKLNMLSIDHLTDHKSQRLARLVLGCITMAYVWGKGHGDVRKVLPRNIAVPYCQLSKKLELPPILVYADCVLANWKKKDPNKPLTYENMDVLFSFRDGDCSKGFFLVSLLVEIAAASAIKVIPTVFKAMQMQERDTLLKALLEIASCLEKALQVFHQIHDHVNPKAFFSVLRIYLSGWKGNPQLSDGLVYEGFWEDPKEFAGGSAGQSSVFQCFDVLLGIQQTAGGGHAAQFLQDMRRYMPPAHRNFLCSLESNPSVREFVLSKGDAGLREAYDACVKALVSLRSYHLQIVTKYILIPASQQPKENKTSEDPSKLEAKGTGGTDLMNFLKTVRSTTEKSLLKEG
T3 sequence (P14902 whole entry): as the sequence (P14902 whole entry, the tested form may be a part) above
Chain of AAK1 (121-471) (Q2M2I8 46-315 limits assumed): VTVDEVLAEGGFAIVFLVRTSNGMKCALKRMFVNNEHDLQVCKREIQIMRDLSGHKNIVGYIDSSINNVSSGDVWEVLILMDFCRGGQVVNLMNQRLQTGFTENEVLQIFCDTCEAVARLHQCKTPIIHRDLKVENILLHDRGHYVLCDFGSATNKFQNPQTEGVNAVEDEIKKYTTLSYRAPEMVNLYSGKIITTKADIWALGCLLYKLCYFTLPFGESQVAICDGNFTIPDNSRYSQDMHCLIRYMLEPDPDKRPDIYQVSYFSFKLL
Chain of AAK1 (Q2M2I8 46-315 limits assumed): as above

| CAMK1G (STD-NMR hit flag) (CAMK1G (1-320)) | AAK1 (STD-NMR hit flag) (AAK1 (121-471)) | IDO1 (STD-NMR hit flag) (IDO1 (1-435)) | DOT1L (STD-NMR hit flag) (DOT1L (1-416)) | Compound | other results |
| --- | --- | --- | --- | --- | --- |
| 1 | 1 | 0 | 0 | Clc1n[nH]c2ccccc12 [Fragment B02291265] |  |
| 1 | 1 | 0 | 0 | Clc1ncnc2cc[nH]c12 [Fragment B02289595] |  |
| 0 | 0 | 0 | 0 | CS(=O)(=O)c1ncc(Cl)c(C(=O)O)n1 [Fragment B02291223] |  |
| 0 | 1 | 0 | 0 | Cc1cc(N)c(Br)cn1 [Fragment B02297406] |  |
| 1 | 0 | 0 | 0 | OCc1cc2c(cc1Cl)OCO2 [Fragment B02291235] |  |
| 1 | 1 | 0 | 1 | Cc1c(Cl)cnc(N)c1Cl [Fragment B02297405] |  |
| 0 | 0 | 0 | 0 | O=C(O)c1ccc(Cl)cn1 [Fragment B02289602] |  |
| 0 | 0 | 1 | 0 | COc1ncc(Cl)cc1C(=O)O [Fragment B02297429] |  |
| 0 | 0 | 0 | 0 | NC1CCSc2ccc(Cl)cc21 (stereo not drawn) [Fragment B02291226] |  |
| 0 | 0 | 0 | 0 | Nc1ncnc(C(=O)O)c1Cl [Fragment B02290472] |  |
| 0 | 0 | 0 | 0 | OB(O)c1ccc(Cl)nc1F [Fragment B02289599] |  |
| 0 | 0 | 0 | 0 | Cn1c(=O)cc(Cl)[nH]c1=O [Fragment B02290524] |  |

Continued, compound first:

| Compound | CAMK1G (STD-NMR hit flag) (CAMK1G (1-320)) | AAK1 (STD-NMR hit flag) (AAK1 (121-471)) | IDO1 (STD-NMR hit flag) (IDO1 (1-435)) | DOT1L (STD-NMR hit flag) (DOT1L (1-416)) | other results |
| --- | --- | --- | --- | --- | --- |
| Clc1nccc2cc[nH]c12 [Fragment A2] |  |  |  |  | Kd (AAK1; [2]): 60 µM |
| Nc1c(Cl)ccc(O)c1Cl [Fragment 0471] |  |  |  |  | Kd (AAK1; [2]): 90 µM; LE (AAK1): 0.57; LELP (AAK1): 4.03 |
| Clc1ncnc2ccsc12 [Fragment A5] |  |  |  |  | KD (AAK1; [2]): completely abolished the affinity |
| Cc1c(Cl)cnc(N)c1Cl [Fragment 7405] |  |  |  |  | ITC validation (KD) (DOT1L): None of these could be validated with ITC; Kd (CAMK1G): 130 µM |
| Nc1c(Cl)ccc2nonc12 [Fragment 1217] |  |  |  |  | stability with GSH (in words) [1]: sufficiently stable |
| Cn1c(=O)c2[nH]c(Cl)nc2n(C)c1=O [Fragment 1216] |  |  |  |  | stability with GSH (in words) [1]: sufficiently stable; Kd (IDO1; [3]): 390 µM; LE (IDO1; LE=1/N⋅1.4⋅−log(KD), IDO1): 0.34; LELP (IDO1; LELP= logP/LE, IDO1): −1.92 |
| Clc1ncnc2ccoc12 [Fragment A4] |  |  |  |  | Kd (AAK1; [2]): 302 µM |
| Oc1nc2nc(Cl)ccc2[nH]1 [Fragment 0474] |  |  |  |  | stability with GSH (in words) [1]: sufficiently stable; Kd (AAK1; [2]): 180 µM; LE (AAK1): 0.48; LELP (AAK1): 1.90 |
| Clc1cccc2cc[nH]c12 [Fragment A6] |  |  |  |  | Kd (AAK1; [2]): 170 µM |
| Nc1ccc2[nH]cnc2c1Br [Fragment 7409] |  |  |  |  | LE (CAMK1G; LE=1/N⋅1.4⋅−log(KD), CAMK1G): over 0.4; stability with GSH (in words) [1]: sufficiently stable; Kd (AAK1; [2]): 6 µM; LE (AAK1): 0.67; LELP (AAK1): 2.86 |
| c1cc2cc[nH]c2cn1 [Fragment A3] |  |  |  |  | KD (AAK1; [2]): completely abolished the affinity; Kd (AAK1; SAR analogs of 9595): > 1000 µM |
| Cc1n[nH]c(C)c1I [Fragment 0459] |  |  |  |  | ITC validation (KD) (DOT1L): None of these could be validated with ITC; also recorded: beyond the limits of ITC; Kd (CAMK1G): 190 µM; KD (IDO1; [3]): too low to derive reliable affinity determination; Kd (IDO1; [3]): > 1000 µM; STD-NMR hit (CAMK1G (1-320)): STD hit; STD-NMR hit (AAK1 (121-471); [4]): STD hit; Kd (AAK1; [2]): 18 µM; STD-NMR hit (IDO1 (1-435); [4]): STD hit; STD-NMR hit (DOT1L (1-416); [4]): STD hit |
| Clc1ccnc2cc[nH]c12 [Fragment A1] |  |  |  |  | Kd (AAK1; [2]): 50 µM |
| Nc1ccc(Br)c(C(=O)O)n1 [Fragment B02297395] | 0 | 0 | 0 | 0 |  |
| Brc1cnc(N2CCCNCC2)nc1 [Fragment B02290087] | 1 | 0 | 0 | 0 |  |
| CC(C(=O)O)n1cc(Br)cn1 (stereo not drawn) [Fragment B02290114] | 0 | 0 | 0 | 0 |  |
| Nc1ncc(Br)s1 [Fragment B02290461] | 0 | 0 | 0 | 0 |  |
| Cc1nc(N)nc(Cl)c1Cl [Fragment B02291102] | 1 | 1 | 1 | 0 |  |
| CCOC(Cn1cc(Cl)cn1)OCC [Fragment B02291225] | 0 | 0 | 1 | 0 |  |
| Clc1ccc(CN2CCNCC2)s1 [Fragment B02291241] | 0 | 0 | 0 | 0 |  |
| Clc1ncccn1 [Fragment B02291224] | 0 | 0 | 0 | 0 |  |
| Brc1noc(C2CC2)n1 [Fragment B02291272] | 0 | 0 | 0 | 0 |  |
| Cc1c(Cl)c(C(=O)O)nn1C [Fragment B02291218] | 0 | 0 | 0 | 0 |  |
| Clc1cnccn1 [Fragment B02291240] | 0 | 0 | 0 | 0 |  |
| Brc1cnc2cnccn12 [Fragment 0120] |  |  |  |  | ITC validation (KD) (DOT1L): None of these could be validated with ITC; STD-NMR hit (CAMK1G (1-320)): fragment hits |
| Clc1cncc(-n2cccn2)n1 [Fragment B02291256] | 1 | 1 | 0 | 0 |  |
| O=S(=O)(c1ccc(Cl)s1)N1CCNCC1 [Fragment B02291236] | 0 | 0 | 0 | 0 |  |
| Brc1cnc(N2CCNCC2)nc1 [Fragment B02297422] | 1 | 1 | 0 | 0 |  |

— publication PMC8847695 (Frontiers in Chemistry, 2022)
